From the NIST ThermoML archive (doi:10.1021/acs.jced.7b00650)

Settings: Liquid; for viscosity: Capillary tube (Ostwald / Ubbelohde) method; for mass density: Vibrating tube method

CCCCCCCCCCCC [dodecane]
Settings	mass density [kg/m3]	viscosity [mPa·s]
293.21 K, 2007 kPa	750.58	1.522
293.21 K, 3977 kPa	752.18	1.56
293.21 K, 5979 kPa	753.71	1.599
293.21 K, 7982 kPa	755.06	1.639
293.21 K, 12987 kPa	758.27	1.74
293.21 K, 29985 kPa	768.5	2.106
293.22 K, 9987 kPa	756.38	1.679
293.22 K, 15986 kPa	760.07	1.801
293.22 K, 18994 kPa	761.82	1.865
293.22 K, 21995 kPa	763.63	1.929
293.22 K, 24987 kPa	765.5	1.994
293.22 K, 27987 kPa	767.37	2.061
313.1 K, 1990 kPa	736.16	1.089
313.1 K, 4017 kPa	737.72	1.116
313.1 K, 6016 kPa	739.14	1.143
313.1 K, 8014 kPa	740.64	1.171
313.1 K, 10011 kPa	742.11	1.199
313.1 K, 13007 kPa	744.26	1.241
313.1 K, 16011 kPa	746.36	1.283
313.1 K, 19017 kPa	748.61	1.326
313.1 K, 22017 kPa	750.69	1.37
313.1 K, 25019 kPa	752.63	1.414
313.1 K, 28017 kPa	754.52	1.458
313.1 K, 30020 kPa	755.75	1.489
333 K, 3976 kPa	723.61	0.8436
333.01 K, 2024 kPa	721.82	0.823
333.01 K, 5981 kPa	725.32	0.8643
333.01 K, 7987 kPa	726.99	0.885
333.01 K, 10019 kPa	728.35	0.9059
333.01 K, 13016 kPa	730.73	0.9374
333.01 K, 16014 kPa	733.04	0.9691
333.01 K, 19018 kPa	735.29	1.001
333.01 K, 22015 kPa	737.46	1.033
333.01 K, 25018 kPa	739.58	1.066
333.01 K, 28015 kPa	741.65	1.099
333.01 K, 30024 kPa	742.99	1.121
353.12 K, 2000 kPa	706.86	0.6433
353.12 K, 3991 kPa	708.83	0.6598
353.12 K, 5996 kPa	710.75	0.6763
353.12 K, 8009 kPa	712.81	0.6929
353.12 K, 10014 kPa	714.63	0.7095
353.12 K, 13006 kPa	717.28	0.7344
353.12 K, 16007 kPa	719.83	0.7594
353.12 K, 19003 kPa	722.16	0.7845
353.12 K, 22006 kPa	724.55	0.8098
353.12 K, 25008 kPa	726.87	0.8352
353.12 K, 28011 kPa	729.13	0.8607
353.12 K, 30007 kPa	730.59	0.8778

CCCCCCCCC [nonane]
Settings	mass density [kg/m3]	viscosity [mPa·s]
293.21 K, 1993 kPa	719.36	0.7109
293.21 K, 3991 kPa	721.16	0.7266
293.21 K, 5993 kPa	722.88	0.7426
293.21 K, 7996 kPa	724.42	0.7587
293.21 K, 10001 kPa	725.92	0.775
293.21 K, 13001 kPa	728	0.8
293.21 K, 19004 kPa	732.11	0.8517
293.21 K, 22005 kPa	734.14	0.8782
293.21 K, 24997 kPa	736.13	0.9052
293.21 K, 27997 kPa	738.31	0.9329
293.21 K, 29995 kPa	739.58	0.9516
293.22 K, 16000 kPa	730.02	0.8254
313.1 K, 19007 kPa	718.18	0.6634
313.1 K, 22007 kPa	720.52	0.6827
313.1 K, 25009 kPa	722.7	0.7023
313.1 K, 28007 kPa	724.82	0.7222
313.1 K, 30010 kPa	726.21	0.7357
313.11 K, 2000 kPa	704.08	0.559
313.11 K, 4007 kPa	705.88	0.5709
313.11 K, 6006 kPa	707.62	0.5829
313.11 K, 8004 kPa	709.24	0.595
313.11 K, 10007 kPa	710.92	0.6072
313.11 K, 13003 kPa	713.28	0.6256
313.11 K, 16007 kPa	715.76	0.6444
333 K, 2014 kPa	688.53	0.4535
333 K, 3990 kPa	690.6	0.4631
333 K, 5995 kPa	692.58	0.4727
333.01 K, 8001 kPa	694.51	0.4824
333.01 K, 10007 kPa	696.11	0.4921
333.01 K, 13004 kPa	698.84	0.5067
333.01 K, 16002 kPa	701.48	0.5215
333.01 K, 19006 kPa	704.03	0.5364
333.01 K, 22003 kPa	706.5	0.5515
333.01 K, 25006 kPa	708.9	0.5667
333.01 K, 28003 kPa	711.23	0.5821
333.01 K, 30012 kPa	712.74	0.5925
353.12 K, 2004 kPa	672.27	0.3733
353.12 K, 3995 kPa	674.59	0.3814
353.12 K, 6000 kPa	676.83	0.3894
353.12 K, 8005 kPa	679.1	0.3975
353.12 K, 10010 kPa	681.31	0.4056
353.12 K, 13002 kPa	684.37	0.4178
353.12 K, 16003 kPa	687.3	0.43
353.12 K, 18999 kPa	689.99	0.4422
353.12 K, 22002 kPa	692.72	0.4546
353.12 K, 25004 kPa	695.35	0.467
353.12 K, 28007 kPa	697.9	0.4795
353.12 K, 30003 kPa	699.56	0.4879

CCCCCCCC [octane]
Settings	mass density [kg/m3]	viscosity [mPa·s]
293.21 K, 1996 kPa	703.76	0.5512
293.21 K, 8004 kPa	709.25	0.5874
293.21 K, 13010 kPa	713.21	0.6183
293.21 K, 30002 kPa	725.54	0.7285
293.22 K, 3994 kPa	705.71	0.5631
293.22 K, 6001 kPa	707.57	0.5752
293.22 K, 10009 kPa	710.88	0.5997
293.22 K, 16009 kPa	715.43	0.6371
293.22 K, 19011 kPa	717.57	0.6566
293.22 K, 22012 kPa	719.76	0.6759
293.22 K, 25004 kPa	721.88	0.6954
293.22 K, 28004 kPa	724.19	0.7152
313.1 K, 5999 kPa	692.07	0.4593
313.1 K, 19006 kPa	703.5	0.5234
313.1 K, 21998 kPa	706.05	0.5385
313.1 K, 25000 kPa	708.39	0.5539
313.1 K, 27998 kPa	710.67	0.5694
313.1 K, 30001 kPa	712.15	0.5798
313.11 K, 2007 kPa	688.27	0.4402
313.11 K, 4000 kPa	690.26	0.4497
313.11 K, 7997 kPa	693.85	0.469
313.11 K, 10009 kPa	695.59	0.4788
313.11 K, 13005 kPa	698.26	0.4935
313.11 K, 16009 kPa	700.84	0.5083
333 K, 22003 kPa	691.91	0.4414
333.01 K, 2005 kPa	672.19	0.3601
333.01 K, 3993 kPa	674.49	0.3681
333.01 K, 5998 kPa	676.69	0.3761
333.01 K, 8014 kPa	678.82	0.3841
333.01 K, 10007 kPa	680.8	0.3921
333.01 K, 13004 kPa	683.6	0.4043
333.01 K, 16002 kPa	686.47	0.4166
333.01 K, 19006 kPa	689.24	0.4289
333.01 K, 25006 kPa	694.49	0.4539
333.01 K, 28003 kPa	696.99	0.4666
333.01 K, 30012 kPa	698.61	0.4751
353.12 K, 2008 kPa	655.38	0.2974
353.12 K, 3999 kPa	657.99	0.3043
353.12 K, 6000 kPa	660.5	0.3112
353.12 K, 8001 kPa	663.11	0.3181
353.12 K, 10006 kPa	665.45	0.325
353.12 K, 19000 kPa	674.99	0.3563
353.12 K, 22003 kPa	677.96	0.3669
353.12 K, 25005 kPa	680.81	0.3775
353.12 K, 28008 kPa	683.56	0.3882
353.12 K, 30004 kPa	685.34	0.3954
353.13 K, 13003 kPa	668.83	0.3354
353.13 K, 16004 kPa	672.05	0.3458
